From PubChem BioAssay AID330 (DTP/NCI, 2004)
“And” between values parts separate entries of the source, which are not always exact repeats. Identical values can stand only once. Inconclusive results and toxic doses are left out. Rule for the calls: active = survival T/C of 150% or more; inactive = T/C below 125% in these data.

Tested on: P388 leukemia ip, CD2F1 mice, survival T/C
Assay: NCI In Vivo Anticancer Drug Screen. Data for tumor model P388 Leukemia (intraperitoneal) in CD2F1 (CDF1) mice
Conditions: endpoint: median survival time, higher = longer survival
Outline: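 Mice carrying the transplanted tumor received test compound or vehicle. Survival was recorded in each group, and the value is the treated-group measurement divided by that of the vehicle-treated control group.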

[1] = dose: 25.0 mg/kg/injection, schedule: Q01DX009 (ip), vehicle: other
[2] = dose: 50.0 mg/kg/injection, schedule: Q01DX009 (ip), vehicle: other
[3] = dose: 100.0 mg/kg/injection, schedule: Q01DX009 (ip), vehicle: other
[4] = dose: 200.0 mg/kg/injection, schedule: Q01DX009 (ip), vehicle: other
[5] = dose: 400.0 mg/kg/injection, schedule: Q01DX009 (ip), vehicle: other
[6] = dose: 60.0 mg/kg/injection, schedule: Q01DX005 (ip), vehicle: Klucel (hydroxypropylcellulose) (HPC)
[7] = dose: 120.0 mg/kg/injection, schedule: Q01DX005 (ip), vehicle: Klucel (hydroxypropylcellulose) (HPC)
[8] = dose: 50.0 mg/kg/injection, schedule: Q01DX009 (ip), vehicle: Klucel (hydroxypropylcellulose) (HPC)
[9] = dose: 100.0 mg/kg/injection, schedule: Q01DX009 (ip), vehicle: Klucel (hydroxypropylcellulose) (HPC)
[10] = dose: 50.0 mg/kg/injection, schedule: Q01DX005 (ip), vehicle: saline
[11] = dose: 100.0 mg/kg/injection, schedule: Q01DX005 (ip), vehicle: saline
[12] = dose: 200.0 mg/kg/injection, schedule: Q01DX005 (ip), vehicle: saline
[13] = dose: 50.0 mg/kg/injection, schedule: Q01DX005 (ip), vehicle: saline with Tween-80
[14] = dose: 100.0 mg/kg/injection, schedule: Q01DX005 (ip), vehicle: saline with Tween-80
[15] = dose: 200.0 mg/kg/injection, schedule: Q01DX005 (ip), vehicle: saline with Tween-80
[16] = dose: 60.0 mg/kg/injection, schedule: Q01DX005 (ip), vehicle: saline with Tween-80
[17] = dose: 120.0 mg/kg/injection, schedule: Q01DX005 (ip), vehicle: saline with Tween-80
[18] = dose: 240.0 mg/kg/injection, schedule: Q01DX005 (ip), vehicle: saline with Tween-80
[19] = dose: 50.0 mg/kg/injection, schedule: Q01DX005 (ip), vehicle: Klucel (hydroxypropylcellulose) (HPC)
[20] = dose: 100.0 mg/kg/injection, schedule: Q01DX005 (ip), vehicle: Klucel (hydroxypropylcellulose) (HPC)
[21] = dose: 200.0 mg/kg/injection, schedule: Q01DX005 (ip), vehicle: Klucel (hydroxypropylcellulose) (HPC)
[22] = dose: 100.0 mg/kg/injection, schedule: Q01DX009 (ip), vehicle: saline with Tween-80
[23] = dose: 200.0 mg/kg/injection, schedule: Q01DX009 (ip), vehicle: saline with Tween-80
[24] = dose: 50.0 mg/kg/injection, schedule: Q01DX009 (ip), vehicle: saline with Tween-80

Measured: T/C

O=C(Nc1ccc(OCc2ccccc2)cc1)c1cc2c(cc1Br)OCO2
inactive: [1] 106 % of control | [2] 104 % of control | [3] 106 % of control | [4] 100 % of control | [5] 100 % of control

CC1CCC(C)N1CCCCN1C(C)CCC1C (stereo not given)
inactive: dose: 3.13 mg/kg/injection, schedule: Q01DX009 (ip), vehicle: saline 104 % of control and 97 % of control | dose: 6.25 mg/kg/injection, schedule: Q01DX009 (ip), vehicle: saline 100 % of control and 104 % of control | dose: 12.5 mg/kg/injection, schedule: Q01DX009 (ip), vehicle: saline 100 % of control and 106 % of control | dose: 25.0 mg/kg/injection, schedule: Q01DX009 (ip), vehicle: saline 96 % of control

CCOC(=O)C(Cc1ccc(O)c(C=O)c1)NC(C)=O (stereo not given)
inactive: [6] 96 % of control | [7] 97 % of control | dose: 240.0 mg/kg/injection, schedule: Q01DX005 (ip), vehicle: Klucel (hydroxypropylcellulose) (HPC) 98 % of control

CCn1c(=O)c2[nH]c(Br)nc2n(C2CC2)c1=O
inactive: [8] 104 % of control | [9] 106 % of control

CCCCNC(=O)N1C2C3CCC(C)(OC3(C)C)C21 (stereo not given)
inactive: [10] 101 % of control | [11] 101 % of control | [12] 102 % of control

CCCCCCCCCCCCNc1ncnc2[nH]ncc12
inactive: [13] 102 % of control | [14] 98 % of control | [15] 98 % of control

CN(C)CC(O)Cn1ccnc1[N+](=O)[O-] (stereo not given)
inactive: dose: 12.5 mg/kg/injection, schedule: Q01DX009 (ip), vehicle: water 101 % of control | dose: 25.0 mg/kg/injection, schedule: Q01DX009 (ip), vehicle: water 101 % of control | dose: 50.0 mg/kg/injection, schedule: Q01DX009 (ip), vehicle: water 111 % of control | dose: 100.0 mg/kg/injection, schedule: Q01DX009 (ip), vehicle: water 111 % of control | dose: 200.0 mg/kg/injection, schedule: Q01DX009 (ip), vehicle: water 113 % of control

Cc1nn(-c2ccccn2)c2ncnc(N)c12
inactive: [13] 95 % of control | [14] 101 % of control | [15] 95 % of control

CCOC1OCCCC1(C)C (stereo not given)
inactive: [16] 100 % of control | [17] 105 % of control | [18] 112 % of control

CCN(CC)CCCC(C)Nc1nc(-c2ccccc2)nc2ccccc12 (stereo not given)
inactive: [10] 99 % of control | [11] 101 % of control | [12] 110 % of control

O=Cc1c(-c2ccc(-c3ccccc3)cc2)nc2sccn12
inactive: dose: 100.0 mg/kg/injection, schedule: Q01DX001 (ip), vehicle: Klucel (hydroxypropylcellulose) (HPC) 86 % of control | dose: 200.0 mg/kg/injection, schedule: Q01DX001 (ip), vehicle: Klucel (hydroxypropylcellulose) (HPC) 89 % of control | dose: 400.0 mg/kg/injection, schedule: Q01DX001 (ip), vehicle: Klucel (hydroxypropylcellulose) (HPC) 89 % of control

O=C(Nc1ccc2oc3ccc(Cl)cc3c(=O)c2c1)c1ccc(Cl)cc1Cl
inactive: [19] 97 % of control | [20] 96 % of control | [21] 96 % of control

O=C(CCl)N1CCN(c2ccccc2)CC1
inactive: [16] 97 % of control | [17] 100 % of control | [18] 97 % of control

CCN(CC)CCn1cnc(C#N)c1N
inactive: dose: 50.0 mg/kg/injection, schedule: Q01DX009 (ip), vehicle: saline 101 % of control | dose: 100.0 mg/kg/injection, schedule: Q01DX009 (ip), vehicle: saline 100 % of control | dose: 200.0 mg/kg/injection, schedule: Q01DX009 (ip), vehicle: saline 108 % of control

OCC1CCN(CCOCc2ccccc2)C1 (stereo not given)
inactive: [16] 94 % of control | [17] 102 % of control

Cn1cnc([N+](=O)[O-])c1S(N)(=O)=O
inactive: [22] 88 % of control | [23] 123 % of control

N#Cc1ccc(N2CCCC2)c(C#N)c1Cl
inactive: [19] 100 % of control | [20] 96 % of control | [21] 99 % of control

Cc1cc(NS(=O)(=O)c2ccc(N=Nc3c(O)n(-c4ccccc4)n(-c4ccccc4)c3=O)cc2)no1
inactive: [8] 102 % of control | [9] 100 % of control | dose: 200.0 mg/kg/injection, schedule: Q01DX009 (ip), vehicle: Klucel (hydroxypropylcellulose) (HPC) 92 % of control

O=C(Nc1ccc([N+](=O)[O-])cc1)N1CCOCC1
inactive: dose: 12.5 mg/kg/injection, schedule: Q01DX009 (ip), vehicle: saline with Tween-80 97 % of control | dose: 25.0 mg/kg/injection, schedule: Q01DX009 (ip), vehicle: saline with Tween-80 89 % of control | [24] 86 % of control and 92 % of control | [23] 88 % of control

O=NN(c1cccc(C(F)(F)F)c1)c1ccccn1
inactive: [1] 100 % of control | [2] 108 % of control | [3] 106 % of control | [4] 104 % of control | [5] 108 % of control

Nc1ncnc2nc(C3OC(CO)C(O)C3O)[nH]c12 (stereo not given)
inactive: [16] 104 % of control | [17] 98 % of control | [18] 95 % of control

CC(=O)C[n+]1cccc(S)c1-c1ccccc1
inactive: [13] 97 % of control | [14] 105 % of control | [15] 97 % of control

CC(=O)OCC1OC(n2nc(-c3ccccc3)c(=O)n(-c3ccccc3)c2=O)C(OC(C)=O)C(OC(C)=O)C1OC(C)=O (stereo not given)
inactive: dose: 100.0 mg/kg/injection, schedule: Q04DX003 (ip), vehicle: saline with Tween-80 110 % of control | dose: 200.0 mg/kg/injection, schedule: Q04DX003 (ip), vehicle: saline with Tween-80 111 % of control

N=C1SCc2ccc3ccccc3c21
inactive: [24] 100 % of control | [22] 124 % of control | dose: 400.0 mg/kg/injection, schedule: Q01DX009 (ip), vehicle: saline with Tween-80 97 % of control

Nn1cnnc1SCc1ccccc1
inactive: dose: 100.0 mg/kg/injection, schedule: Q01DX001 (ip), vehicle: other 100 % of control | dose: 200.0 mg/kg/injection, schedule: Q01DX001 (ip), vehicle: other 100 % of control | dose: 400.0 mg/kg/injection, schedule: Q01DX001 (ip), vehicle: other 100 % of control

COc1c(Cl)c(=O)oc2ccc(Cl)cc12
inactive: dose: 6.25 mg/kg/injection, schedule: Q01DX009 (ip), vehicle: Klucel (hydroxypropylcellulose) (HPC) 104 % of control | dose: 12.5 mg/kg/injection, schedule: Q01DX009 (ip), vehicle: Klucel (hydroxypropylcellulose) (HPC) 99 % of control | dose: 25.0 mg/kg/injection, schedule: Q01DX009 (ip), vehicle: Klucel (hydroxypropylcellulose) (HPC) 97 % of control | [8] 104 % of control

COc1ccc(N/C=C2\C(=O)CCc3c2oc2cc(Cl)c(O)c(Cl)c32)cc1
inactive: dose: 15.0 mg/kg/injection, schedule: Q01DX005 (ip), vehicle: Klucel (hydroxypropylcellulose) (HPC) 93 % of control | dose: 30.0 mg/kg/injection, schedule: Q01DX005 (ip), vehicle: Klucel (hydroxypropylcellulose) (HPC) 99 % of control | [6] 107 % of control and 93 % of control | [7] 102 % of control

CC1(C)OC2C(COC(c3ccccc3)(c3ccccc3)c3ccccc3)OC(n3ccc(=O)[nH]c3=O)C2O1 (stereo not given)
inactive: [19] 97 % of control | [20] 89 % of control | [21] 88 % of control

COC(CCC(C)C1OC23CC(OC(=O)CC(C(C)O)OC(=O)CC(O)(O2)C(C)CC3(C)C)C1C)c1cccc(O)c1 (stereo not given)
inactive: dose: 3.12 micrograms/kg/injection, schedule: Q01DX009 (ip), vehicle: saline + Tween-80 + alcohol 101 % of control | dose: 6.25 micrograms/kg/injection, schedule: Q01DX009 (ip), vehicle: saline + Tween-80 + alcohol 107 % of control and 109 % of control and 86 % of control | dose: 12.5 micrograms/kg/injection, schedule: Q01DX009 (ip), vehicle: saline + Tween-80 + alcohol 108 % of control | dose: 25.0 micrograms/kg/injection, schedule: Q01DX009 (ip), vehicle: saline + Tween-80 + alcohol 111 % of control and 117 % of control | dose: 50.0 micrograms/kg/injection, schedule: Q01DX009 (ip), vehicle: saline + Tween-80 + alcohol 115 % of control and 117 % of control
